Patent US4032659A (priority 1975, dated 1977)
Where two headings read alike, the source gives them in different places.

How the values were obtained:
[1] = system: Influenza B Massachusetts virus; settings: larger doses, different dose schedules; cited from earlier work
[2] = system: virus infections; experiment: Antiviral screening program, several viruses; settings: mouse, in vivo
[3] = system: Influenza Ann Arbor virus; experiment: Chemoprophylaxis of Influenza Ann Arbor (A1) virus infection in mice; assay type: in vivo, mouse
[4] = system: Influenza PR 8 virus; experiment: Chemoprophylaxis of Influenza PR 8 virus infection in mice; assay type: in vivo, mouse
[5] = system: Mengo virus; experiment: Mengo virus infection in mice; assay type: in vivo, mouse; settings: oral
From the text: The results are illustrated in Table 43.

[6] = system: Herpes virus; assay type: in vivo, mouse; settings: oral
[7] = system: Herpes virus; experiment: Herpes virus in eggs (chick embryo survival); assay type: in vivo, chicken eggs; settings: for Deaths on day 1 / Deaths on day 3 / Deaths on day 4 / Total Deaths 4th Day / Deaths on day 2: 12 eggs
[8] = system: Vaccinia virus; assay type: in vivo; settings: scarified rabbit skin
[9] = system: Vaccinia virus; assay type: cell-based, fertile eggs; settings: various concentrations
[10] = system: Neurovaccinia virus; experiment: Neurovaccinia (intracerebral) in mice; settings: mouse, in vivo

NC12CC3CC(CC(C3)C1)C2 [Amantadine, amantadine, reference compound]
chemoprophylaxis (in words) [1]: ineffective against Influenza B Massachusetts | activity (in words) [2]: inactive against all of the other viruses in the test system | tests with survivors (of 18 tests) ([3]; 18 tests): 5 | instances of a statistically significant number of survivors ([4]; 41 tests): one single instance | instances of increased geometric mean survival time ([4]; 41 tests): 11 | number of survivors in the single significant instance ([4]; 41 tests): 3

NNC(N)=S [Thiosemicarbazide, thiosemicarbazide]
Survivors ([5]; total dose .0000005 μg): 0 | No. animals surviving after 6 days ([5]; total dose .000005 μg): 2 | Survivors ([5]; total dose .000005 μg): 1 | No. animals surviving after 6 days ([5]; total dose .00005 μg): 5 | Survivors ([5]; total dose .00005 μg): 1 | Survivors ([5]; total dose .0005 μg): 0 | Survivors ([5]; total dose .005 μg): 0 | activity (in words) [2]: active against Influenza PR 8, Vaccinia in the mouse tail, Mengo virus, Herpes virus in mice and eggs, Influenza virus, and Vaccinia virus in rabbits | No. animals surviving when 19/20 controls are dead ([6]; total dose 5 μg): 0 | No. animals surviving when 17/20 controls are dead ([6]; total dose .000005 μg): 0 | No. animals surviving when 17/20 controls are dead ([6]; total dose .00005 μg): 3 | Survivors ([6]; total dose .00005 μg): 3 | No. animals surviving after 7 days ([6]; total dose .0005 μg): 6 | No. animals surviving when 17/20 controls are dead ([6]; total dose .0005 μg): 0 | No. animals surviving after 7 days ([6]; total dose .005 μg): 6 | No. animals surviving when 17/20 controls are dead ([6]; total dose .05 μg): 0 | No. Living Longer Than Controls, total ([7]; all doses): 7 | Deaths on day 1 ([7]; dose 2 μg): 3 | Deaths on day 3 ([7]; dose 2 μg): 5 | Deaths on day 4 ([7]; dose 2 μg): 3 | Total Deaths 4th Day ([7]; dose 2 μg): 12 | Deaths on day 2 ([7]; dose 20 μg): 4 | Deaths on day 3 ([7]; dose 20 μg): 6 | Total Deaths 4th Day ([7]; dose 20 μg): 12 | Deaths on day 1 ([7]; dose .00005 μg): 2 | Deaths on day 2 ([7]; dose .00005 μg): 5 | Deaths on day 3 ([7]; dose .00005 μg): 2 | Total Deaths 4th Day ([7]; dose .00005 μg): 10 | Deaths on day 1 ([7]; dose .0005 μg): 2 | Deaths on day 2 ([7]; dose .0005 μg): 3 | Deaths on day 3 ([7]; dose .0005 μg): 2 | Deaths on day 4 ([7]; dose .0005 μg): 3 | Total Deaths 4th Day ([7]; dose .0005 μg): 10 | Deaths on day 1 ([7]; dose .005 μg): 4 | Deaths on day 2 ([7]; dose .005 μg): 3 | Deaths on day 3 ([7]; dose .005 μg): 3 | Total Deaths 4th Day ([7]; dose .005 μg): 10 | Deaths on day 2 ([7]; dose .05 μg): 3 | Deaths on day 3 ([7]; dose .05 μg): 5 | Total Deaths 4th Day ([7]; dose .05 μg): 9 | Deaths on day 1 ([7]; dose .5 μg): 3 | Deaths on day 2 ([7]; dose .5 μg): 4 | Deaths on day 3 ([7]; dose .5 μg): 2 | Deaths on day 4 ([7]; dose .5 μg): 2 | Total Deaths 4th Day ([7]; dose .5 μg): 11 | effect on pox formation [8]: highly significant diminution in the vaccinia pox formation | effect on pox formation on the membrane [9]: No effect on pox formation on the membrane could be observed | Survivors ([3]; oral, total dose .5 μg): 0 | surviving animals (three instances, single dose level) [10]: one | protection ([4]; intraperitoneal): almost no protection | Survivors ([4]; intraperitoneal, total dose 5 μg): 0 | Survivors ([4]; intraperitoneal, total dose .005 μg): 0 | Survivors ([4]; intraperitoneal, total dose .05 μg): 0 | Survivors ([4]; intraperitoneal, total dose .5 μg): 0 | Survivors ([4]; oral, total dose .005 μg): 3 | Survivors ([4]; oral, total dose .5 μg): 0 | Survivors ([4]; subcutaneous, total dose 5 μg): 3 | Survivors ([4]; subcutaneous, total dose .0005 μg): 0 | Survivors ([4]; subcutaneous, total dose .005 μg): 0
